Test results as given in patent US20030217372A1, “Methods of using alpha 1b-adrenergic receptors” (priority 2002, published 2003).
Where a name gives a salt, the structure may show the parent alone.

Assays:
[1] = tested on: WT and α1b-AR KO mice; assay: Locomotor activity in circular corridor after acute drug injection; type: in vivo; details: for amplitude of locomotor response, α1b-AR KO vs WT mice: D-amphetamine 2 and 3 mg/kg, cocaine and morphine independent of dose
Protocol: FIG. 2 is a series of dose response graphs that depicts the results of locomotor response to novelty, saline, scopolamine and chloro-APB experiments in WT and α1b-AR KO mice. […] Animals were placed in the experimental apparatus for 90 minutes, received a saline injection and were replaced in the apparatus for 60 minutes. On the following day, animals were placed in the experimental apparatus for 90 minutes, they received an intraperitoneal injection of either saline or scopolamine (1 mg/kg) and their locomotor response was measured every 5 minutes for 60 minutes. FIG. 2D represents the results of locomotor response to chloro-APB; animals were placed in the experimental apparatus for 90 minutes, received a saline injection and were replaced in the apparatus for 60 minutes. On the following days, animals were placed in the experimental apparatus for 90 minutes, they received an intraperitoneal injection of chioro-APB and their locomotor response was measured every 5 minutes for 60 minutes. Several doses of chloro-APB were tested on consecutive days in a random order.
Independent groups of animals were used for each treatment to avoid eventual behavioral sensitization (N=6-16 per group).
(§1) Mice were introduced in a circular corridor (4.5 cm width, 17 cm external diameter) crossed by four infrared beams (1.5 cm above the base) placed at every 90° (Imetronic, Pessac, France). The locomotor activity was counted when animals interrupted two successive beams and, thus, had traveled ¼ of the circular corridor. In each session, the spontaneous activity was recorded for 90 minutes, before mice received either saline or drugs. Their activity was recorded for an additional 60 minutes or 120 minutes period. The first session was a session of habituation to the experimental procedure during which animals received saline (˜3 ml/kg, i.p.). The locomotor response to a drug administration was measured on the following day. Tests were performed between 12:00 and 6:00 p.m. in stable conditions of temperature and humidity.

[2] = tested on: WT and α1b-AR KO mice; assay: Locomotor sensitization induced by repeated drug administration; type: in vivo
Protocol: Animals spent 90 minutes in the experimental apparatus, received a saline injection and were replaced in the apparatus for 60 minutes. […] Four similar sessions took place every other day. The sixth session took place after a 10-day withdrawal. Locomotor responses measured during the first hour following each injection are presented in function of the number of injections and slope values. N=6 to 15 animals per group.
N=6 to 12 animals per group. […] FIG. 6B represents the time course of the locomotor responses measured every 5 minutes.
as §1
Data were analyzed with Student's t-test or analysis of variance. For behavioral sensitization experiments, correlation between the number of drug injections and the amplitude of the locomotor responses was analyzed with linear regression and the influence of genotype on this correlation with an analysis of covariance. Genotype and prazosin treatments were between-subjects factors. […] Differences were considered significant when p<0.05.
The rate of sensitization was evaluated by determining the slope of the “number of injections/response” curve (FIG. 5).

[3] = tested on: WT and α1b-AR KO mice; assay: Oral consumption, two-bottle choice paradigm; type: in vivo; details: cocaine 0.2 mg/ml, morphine 0.15 mg/ml
Protocol: Fluid intake was measured daily by weighting bottles, mice being housed individually. Tested solutions were replaced twice weekly.
Cocaine and morphine: For two weeks, bottles were filled with cocaine or morphine solution of decreasing concentration (one dose per week; 0.3 mg/ml then 0.2 mg/ml for cocaine and 0.2 mg/ml and 0.15 mg/ml for morphine) instead of water, so that mice accustom to the bitter taste. […] Then, to determine mean water consumption and eliminate basal side preference, two bottles of water were given for three days to each animal and basal consumption was calculated as the mean consumption from one bottle on day 2 and the other on day 3. Preference for cocaine (0.2 mg/ml) or morphine (0.15 mg/ml) was then measured over two 12-day sessions, drug and water sides being exchanged between the 2 sessions. Means of drug and water consumptions were estimated for the last 5 days of both 12-day periods.
Rewarding properties of cocaine and morphine were assessed in a two-bottle choice paradigm adapted from the method described by Ferraro et al. (Ferraro et al., Pharmacol. Biochem. Behav. 66:397-401, 2000) for cocaine and Borg and Taylor (Borg et al., Biochem. Behav. 47:633-46, 1994) for morphine.

[4] = tested on: WT and α1b-AR KO mice; assay: Morphine-induced conditioned place preference (Y maze); type: in vivo; details: for conditioned place preference (CPP): morphine 5 mg/kg s.c.; for locomotor activity during conditioning sessions, morphine vs saline: repeated morphine 5 mg/kg s.c.
Protocol: FIG. 8 is a series of histograms and dose response graphs that represents the results of a conditioned place preference experiment induced by morphine in WT and α1b-AR KO mice. WT and α1b-AR KO mice were conditioned to receive morphine (5 mg/kg s.c.) in a compartment and a saline injection in the other compartment. The saline group received saline injections in both compartments. N=6 to 11 animals per group. The upper left graph show the time spent in the morphine-associated compartment before conditioning (pre-test), after four morphine injections and four saline injections (post-test 1) and after two supplementary morphine and two supplementary saline injections (post-test 2). *p<0.05 and **p<0.01 when time spent in the drug compartment was different between pretest and post-test 1 or 2 (paired Student's t-test). The upper right graph show scores that correspond to the time spent in the morphine compartment during the post-test (1 and 2) minus time spent in the morphine compartment during the pre-test. p<0.05 when scores were higher for morphine treated mice than for saline treated mice (unpaired Student's t-test). The lower left and lower right graphs show the locomotor activity measured during the 30 minutes of each of the 12 conditioning sessions corresponding either to morphine or to saline injection. ***p<0.001 locomotor activity measured during the morphine session was higher than during the corresponding saline session (paired Student's t-test).
Conditioned place preference was measured in a Y maze. Mice were habituated to the experimental apparatus (Imetronic, Pessac, France) for 3 days (1 hour of exploration of the maze with neutral cues, i.e. smooth gray walls and floor). On the following day, animals were allowed to freely explore the two compartments (with different visual and tactile cues) of the maze for 20 minutes corresponding to a pre-conditioning test. The total amount of time spent in each compartment was recorded and analyzed as previously described (Valverde et al., Psychopharmacology (Berlin) 123:119-26, 1996). For the next […] corresponding to the conditioning session, mice alternatively received morphine (5 mg/kg; s.c.) in one compartment and saline in the other compartment the following day. According to the unbiased method, morphine was equally associated to both compartments and was given either first or second, mice being confined in one compartment for the 30 minutes following each injection. One day after the end of the conditioning session, mice were submitted to a post-conditioning test identical to the test performed before conditioning, i.e. each mice being allowed to explore both compartments for 20 minutes. […] Locomotor activities were recorded with electronic cells in each conditioning session.

[5] = molecular target: T1, α1b-ARs (Mus musculus, UniProt P97717); assay: Prazosin effect on locomotor responses to D-amphetamine, cocaine and morphine; type: in vivo, mice; details: prazosin 1 mg/kg i.p. pre-treatment
T1 construct: endogenous in cells; host or cells: living adult male WT mice (129/Sv x C57BL/6J mixed background), in vivo; α1b-AR KO mice as comparison
T1 sequence (P97717 1-514): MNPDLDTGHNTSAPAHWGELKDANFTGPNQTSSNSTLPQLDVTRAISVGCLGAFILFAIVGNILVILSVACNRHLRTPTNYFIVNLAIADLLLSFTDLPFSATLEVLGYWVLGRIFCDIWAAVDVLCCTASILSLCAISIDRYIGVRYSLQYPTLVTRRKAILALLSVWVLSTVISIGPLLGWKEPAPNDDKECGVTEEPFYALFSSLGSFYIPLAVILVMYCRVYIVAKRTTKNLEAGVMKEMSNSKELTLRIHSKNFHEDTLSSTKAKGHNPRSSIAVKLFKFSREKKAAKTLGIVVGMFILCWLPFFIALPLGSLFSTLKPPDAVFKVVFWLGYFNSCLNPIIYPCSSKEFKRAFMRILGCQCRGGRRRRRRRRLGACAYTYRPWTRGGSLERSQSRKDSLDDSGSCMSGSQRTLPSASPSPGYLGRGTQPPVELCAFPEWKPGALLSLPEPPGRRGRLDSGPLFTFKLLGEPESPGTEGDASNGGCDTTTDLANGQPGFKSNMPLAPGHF
Protocol: Animals were placed in the experimental apparatus for 150 minutes, received two saline injections after 60 minutes and 90 minutes spent in the corridor. On the following day, animals were placed in the experimental apparatus for 60 minutes, they received an intrapenitoneal injection of either saline or prazosin (1 mg/kg) and were replaced in the corridor for 30 minutes. […] Independent groups of animals were used for each treatment to avoid eventual behavioral sensitization (N=6-12 per group).
as §1, with “In each session, the spontaneous activity was recorded for 90 minutes, before mice received either saline or drugs.” left out

[6] = tested on: α1-adrenergic receptors; details: cited from earlier work
[7] = α1b-AR KO mice, i.p., different doses

Structure (SMILES): Br.C=CCN1CCc2c(cc(O)c(O)c2Cl)C(c2ccccc2)C1 (stereo not shown) [chloro-APB, chloro-APB hydrobromide]
- locomotor activity ([1]; WT mice, chloro-APB i.p., several doses): dose-dependently increase locomotor activity
- amplitudes of locomotor responses, WT vs α1b-AR KO mice ([1]; chloro-APB i.p., several doses): No significant differences

Structure (SMILES): COC(=O)[C@H]1[C@@H](OC(=O)c2ccccc2)C[C@@H]2CC[C@H]1N2C.Cl [cocaine, cocaine hydrochloride]
- amplitude of locomotor response, α1b-AR KO vs WT mice [1]: significantly altered by the genotype
- locomotor activity ([1]; WT mice, i.p., different doses): dose-dependent stimulation of locomotor activity
- locomotor activity [1, 7]: also increased locomotor activity
- locomotor responses of drug-treated vs naive mice ([2]; KO mice, cocaine 5 mg/kg, 5 previous drug injections): no significant difference
- rate of sensitization: slope of the number of injections/response curve ([2]; WT mice, cocaine 5 mg/kg): 101.0±47.4
- rate of sensitization: slope of the number of injections/response curve ([2]; WT mice, cocaine 15 mg/kg): 198.2±48.19
- rate of sensitization: slope of the number of injections/response curve ([2]; α1b-AR KO mice, cocaine 5 mg/kg): −0.155±20.96
- rate of sensitization: slope of the number of injections/response curve ([2]; α1b-AR KO mice, cocaine 15 mg/kg): 102.8±19.37
- drug consumption vs water in two-bottle choice (rewarding properties) ([3]; KO mice): aversion
- drug consumption vs water in two-bottle choice (rewarding properties) ([3]; WT mice): exhibited a preference

Structure (SMILES): CN1CC[C@]23c4c5ccc(O)c4O[C@H]2[C@@H](O)C=C[C@H]3[C@H]1C5 [morphine, morphine chiorhydrate]
- amplitude of locomotor response, α1b-AR KO vs WT mice [1]: significantly altered by the genotype
- stereotyped walking behavior ([1]; KO mice): induced a stereotyped walking behavior
- locomotor activity ([1]; WT mice, i.p., different doses): dose-dependent stimulation of locomotor activity
- locomotor activity [1, 7]: also increased locomotor activity
- rate of sensitization: slope of the number of injections/response curve ([2]; WT mice, morphine 7.5 mg/kg): 146.7±51.4
- rate of sensitization: slope of the number of injections/response curve ([2]; α1b-AR KO mice, morphine 7.5 mg/kg): 38.17±19.48
- drug consumption vs water in two-bottle choice (rewarding properties) ([3]; KO mice): aversion
- conditioned place preference (CPP) ([4]; KO mice): not in KO mice
- locomotor activity during conditioning sessions, morphine vs saline ([4]; KO mice): no significant difference
- conditioned place preference (CPP) ([4]; WT mice): significant CPP was induced
- locomotor activity during conditioning sessions, morphine vs saline ([4]; WT mice): induce a behavioral sensitization in WT

Structure (SMILES): COc1cc2nc(N3CCN(C(=O)c4ccco4)CC3)nc(N)c2cc1OC [prazosin]
- effect on locomotor response to D-amphetamine ([5]; WT mice, D-amphetamine 3 mg/kg): significantly reduced
- effect on locomotor response to cocaine ([5]; WT mice, cocaine 20 mg/kg): significantly reduced
- effect on locomotor response to morphine ([5]; WT mice, morphine 10 mg/kg): significantly reduced
- effect on locomotor responses to D-amphetamine, cocaine and morphine ([5]; α1b-AR KO mice): failed to modify
- behavioral sensitization with prazosin co-administered with repeated cocaine or D-amphetamine injections ([6]; background statement): no behavioral sensitization is observed
- locomotor hyperactivity induced by D-amphetamine, cocaine, GBR12783 and morphine ([6]; background statement): completely inhibits
- D-amphetamine-induced locomotor hyperactivity and extracellular DA responses in the nucleus accumbens ([6]; rats, Darracq et al. 1998): inhibits D-amphetamine-induced locomotor hyperactivity without modifying extracellular DA responses

Structure (SMILES): CN1[C@@H]2C[C@@H](OC(=O)[C@H](CO)c3ccccc3)C[C@H]1[C@@H]1O[C@@H]12 [scopolamine, scopolamine hydrobromide]
- stimulatory effect on locomotor activity, WT vs α1b-AR KO mice ([1]; scopolamine 1 mg/kg i.p., 60 minutes): equivalent
